Like-named read-outs stand apart in the source and are kept apart here.
What was measured:
[1] = log P determination by HPLC on reversed-phase column (C 18), EEC Directive 79/831 V.A8; assay type: physicochemical; details: for logP (Physical data, Table 1): labelled a): acidic range, 0.1% aqueous phosphoric acid/acetonitrile gradient, 43° C.
Experimental: The log P values given in Table 1 were determined in accordance with EEC Directive 79/831 V.A8 by HPLC (High Performance Liquid Chromatography) on a reversed-phase column (C 18). Temperature: 43° C.
(a) Mobile phases for the determination in the acidic range: 0.1% aqueous phosphoric acid, acetonitrile; linear gradient of 10% acetonitrile to 90% acetonitrile—the corresponding data in Table 1 are labelled ^a).
(b) Mobile phases for the determination in the neutral range: 0.01 molar aqueous phosphate buffer solution, acetonitrile, linear gradient from 10% acetonitrile to 90% acetonitrile—the corresponding data in Table 1 are labelled ^b).

[2] = system: weeds; assay: Pre-emergence test (Example A), activity against weeds; assay type: in vivo; details: soil sprayed 24 hours after sowing; damage rated after three weeks
Experimental: (§1) To produce a suitable preparation of active compound, 1 part by weight of active compound is mixed with the stated amount of solvent, the stated amount of emulsifier is added and the concentrate is diluted with water to the desired concentration.
Seeds of the test plants are sown in normal soil. After 24 hours, the soil is sprayed with the preparation of active compound such that the particular amount of active compound desired is applied per unit area. The concentration of active compound in the spray liquor is chosen such that the particular amount of active compound desired is applied in 1000 liters of water per hectare.
After three weeks, the degree of damage to the plants is rated in % damage in comparison to the development of the untreated control. The figures denote: • 0%=no effect (like untreated control) • 100%=total destruction

[3] = system: weeds; assay: Post-emergence test (Example B), activity against weeds; assay type: in vivo; details: test plants 5-15 cm sprayed; damage rated after three weeks
Experimental: as §1
Test plants with a height of 5-15 cm are sprayed with the preparation of active compound such that the particular amounts of active compound desired are applied per unit area. The concentration of the spray liquor is chosen so that the particular amounts of active compound desired are applied in 1000 l of water/ha.
After three weeks, the degree of damage to the plants is rated in % damage in comparison to the development of the untreated control.
The figures denote: • 0%=no effect (like untreated control) • 100%=total destruction

[4] = reversed-phase HPLC column (C 18), mobile-phase label not given, read-out: Log P (preparation examples)
[5] = reversed-phase HPLC column (C 18), labelled a): acidic range; read-out: logP)

Row | chromatographic logP [1, 4] | chromatographic logP [1, 5] | chromatographic logP ([1]; reversed-phase HPLC column (C 18), labelled a): acidic range, starting materials of formula (II)/(IIA), read-out: logP (Physical data, Table 2)) | SMILES | activity against weeds, pre-emergence [2] | activity against weeds, post-emergence [3] | logP (Physical data, Table 1) [1]
1 | 1.23 |  |  | CCn1ncc(C(=O)c2ccc(S(C)(=O)=O)c(OCCn3nc(C)n(C)c3=O)c2C)c1O [Example 1, 4-{3-[2-(3′,4′-dimethyl-1′,2′,4′-1H-triazolin-5′-on-1′-yl)-ethyloxy]-2-methyl-4-methylsulphonyl-benzoyl}-1-ethyl-5-hydroxy-1H-pyrazole] | strong activity | strong activity | 
2 | 2.52 |  |  | CCOc1nn(COc2c(Cl)ccc(C(=O)C3C(=O)CCCC3=O)c2Cl)c(=O)n1C [Example 2, 2-[3-(3′-ethoxy-4′-methyl-1′,2′,4′-1H-triazolin-5′-on-1′-yl)-methoxy-2,4-dichloro-benzoyl]-1,3-cyclohexanedione] | strong activity | strong activity | 
3 |  |  |  | O=C1CCCC(O)=C1C(=O)c1ccc(Cl)c(OCn2ccccc2=O)c1Cl [Example 3] | strong activity | strong activity | logP = 2.04^a)
4 |  |  |  | Cc1nn(CCOc2c(Cl)ccc(C(=O)C3=C(O)CCCC3=O)c2Cl)c(=O)n1C [Example 4] | strong activity | strong activity | logP = 1.92^a)
5 |  |  |  | CCn1ncc(C(=O)c2ccc(Cl)c(OCCn3nc(C)n(C)c3=O)c2Cl)c1O [Example 5] | strong activity | strong activity | logP = 1.52^a)
6 |  |  |  | Cc1c(C(=O)C2=C(O)CCCC2=O)ccc(Cl)c1OCCn1nc(C)n(C)c1=O [Example 6] | strong activity | strong activity | logP = 1.93^a)
7 |  |  |  | CCn1ncc(C(=O)c2ccc(Cl)c(OCCn3nc(C)n(C)c3=O)c2C)c1O [Example 7] | strong activity | strong activity | logP = 1.68^a)
8 |  |  |  | CSc1ccc(C(=O)C2=C(O)CCCC2=O)c(Cl)c1OCCn1nc(C)n(C)c1=O [Example 8] | strong activity | strong activity | logP = 1.94^a)
9 |  |  |  | CCn1ncc(C(=O)c2ccc(SC)c(OCCn3nc(C)n(C)c3=O)c2Cl)c1O [Example 9] | strong activity | strong activity | logP = 1.58^a)
10 |  |  |  | CSc1ccc(C(=O)C2=C(O)CCCC2=O)c(C)c1OCCn1nc(C)n(C)c1=O [Example 10] | strong activity | strong activity | logP = 1.91^a)
11 |  |  |  | Cc1nn(CCOc2c(S(C)(=O)=O)ccc(C(=O)C3=C(O)CCCC3=O)c2Cl)c(=O)n1C [Example 11] | strong activity | strong activity | logP = 1.65^a)
12 |  |  |  | CSc1nn(COc2c(Cl)ccc(C(=O)C3=C(O)CCCC3=O)c2Cl)c(=O)n1C [Example 13] |  | strong activity | logP = 2.44^a)
13 |  | 2.14 | 2.15 | CCOC(=O)c1ccc(Cl)c(OC[C@@H]2CCC(=O)N2)c1Cl [II-61, ethyl (S)-2,4-dichloro-3-[(2-oxo-pyrrolidin-5-yl)-methoxy]-benzoate] |  |  | 
14 |  | 3.98 |  | CCOC(=O)c1ccc(Cl)c(OCCBr)c1Cl [ethyl 2,4-dichloro-3-(2-bromo-ethoxy)-benzoate] |  |  | 
15 | 3.52 |  |  | COC(=O)c1ccc(Cl)c(OCCCl)c1C [methyl 4-chloro-3-(2-chloro-ethoxy)-2-methyl-benzoate] |  |  | 
16 | 2.14 |  |  | COC(=O)c1ccc(Cl)c(O)c1C [methyl 4-chloro-3-hydroxy-2-methyl-benzoate] |  |  | 

From patent US6864219B2, “Substituted aryl ketones” (Bayer Aktiengesellschaft, priority 2000, dated 2005)
